Measured values from ChEMBL document CHEMBL1201862, “PubChem BioAssay data set” (2004).
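Tested at 5 concentrations; 48 h exposure; 96-well plates; endpoints linearly interpolated, else capped at highest concentration. GI50: concentration for 50% inhibition of growth.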 Calls of active or inactive are those of the source. Rule as the data show it: active = GI50 up to about 1.1 µM and inactive = higher.

Legend:
Assay in all cases: DTP human tumour cell line panel, 48 h
786-0 = tested on: 786-0
A498 = tested on: A498
A549 = tested on: A549
ACHN = tested on: ACHN
CCRF-CEM = tested on: CCRF-CEM
COLO 205 = tested on: COLO 205
DLD-1 = tested on: DLD-1
DMS-114 = tested on: DMS-114
EKVX = tested on: EKVX
HCC 2998 = tested on: HCC 2998
HCT-116 = tested on: HCT-116
HCT-15 = tested on: HCT-15
HL-60 = tested on: HL-60
HOP-18 = tested on: HOP-18
HOP-62 = tested on: HOP-62
HOP-92 = tested on: HOP-92
HT-29 = tested on: HT-29
IGROV-1 = tested on: IGROV-1
K562 = tested on: K562
KM-20L2 = tested on: KM-20L2
KM12 = tested on: KM12
LXFL 529 = tested on: LXFL 529
M14 = tested on: M14
M19-MEL = tested on: M19-MEL
MOLT-4 = tested on: MOLT-4
Malme-3M = tested on: Malme-3M
NCI-H23 = tested on: NCI-H23
NCI-H460 = tested on: NCI-H460
NCI-H522 = tested on: NCI-H522
OVCAR-4 = tested on: OVCAR-4
OVCAR-5 = tested on: OVCAR-5
OVCAR-8 = tested on: OVCAR-8
RPMI-8226 = tested on: RPMI-8226
RXF 393 = tested on: RXF 393
SF-268 = tested on: SF-268
SF-295 = tested on: SF-295
SF-539 = tested on: SF-539
SK-MEL-28 = tested on: SK-MEL-28
SK-MEL-2 = tested on: SK-MEL-2
SK-MEL-5 = tested on: SK-MEL-5
SN12C = tested on: SN12C
SNB-19 = tested on: SNB-19
SNB-75 = tested on: SNB-75
SNB-78 = tested on: SNB-78
SW-620 = tested on: SW-620
U-251 = tested on: U-251
UACC-257 = tested on: UACC-257
UACC-62 = tested on: UACC-62
UO-31 = tested on: UO-31
CAKI-1 = tested on: CAKI-1
DMS-273 = tested on: DMS-273
LOX IMVI = tested on: LOX IMVI
NCI-H226 = tested on: NCI-H226
OVCAR-3 = tested on: OVCAR-3
SK-OV-3 = tested on: SK-OV-3
TK-10 = tested on: TK-10
XF498 = tested on: XF498

CC1=N/C(=C\c2c(O)ccc3ccccc23)C(=O)O1
GI50 (786-0): > 100 µM (inactive) | GI50 (A498): > 100 µM (inactive) | GI50 (A549): > 100 µM (inactive) | GI50 (ACHN): > 100 µM (inactive) | GI50 (CCRF-CEM): > 100 µM (inactive) | GI50 (COLO 205): > 100 µM (inactive) | GI50 (DLD-1): > 100 µM (inactive) | GI50 (DMS-114): > 100 µM (inactive) | GI50 (EKVX): > 100 µM (inactive) | GI50 (HCC 2998): > 100 µM (inactive) | GI50 (HCT-116): > 100 µM (inactive) | GI50 (HCT-15): > 100 µM | GI50 (HL-60): > 100 µM (inactive) | GI50 (HOP-18): > 100 µM (inactive) | GI50 (HOP-62): > 100 µM (inactive) | GI50 (HOP-92): > 100 µM (inactive) | GI50 (HT-29): > 100 µM (inactive) | GI50 (IGROV-1): > 100 µM (inactive) | GI50 (K562): > 100 µM (inactive) | GI50 (KM-20L2): > 100 µM (inactive) | GI50 (KM12): > 100 µM (inactive) | GI50 (LXFL 529): > 100 µM (inactive) | GI50 (M14): > 100 µM (inactive) | GI50 (M19-MEL): > 100 µM (inactive) | GI50 (MOLT-4): > 100 µM (inactive) | GI50 (Malme-3M): > 100 µM (inactive) | GI50 (NCI-H23): > 100 µM (inactive) | GI50 (NCI-H460): > 100 µM (inactive) | GI50 (NCI-H522): > 100 µM (inactive) | GI50 (OVCAR-4): > 100 µM (inactive) | GI50 (OVCAR-5): > 100 µM (inactive) | GI50 (OVCAR-8): > 100 µM (inactive) | GI50 (RPMI-8226): > 100 µM (inactive) | GI50 (RXF 393): > 100 µM (inactive) | GI50 (SF-268): > 100 µM (inactive) | GI50 (SF-295): > 100 µM (inactive) | GI50 (SF-539): > 100 µM (inactive) | GI50 (SK-MEL-28): > 100 µM (inactive) | GI50 (SK-MEL-2): > 100 µM (inactive) | GI50 (SK-MEL-5): > 100 µM (inactive) | GI50 (SN12C): > 100 µM (inactive) | GI50 (SNB-19): > 100 µM (inactive) | GI50 (SNB-75): 0.849 µM (active) | GI50 (SNB-78): > 100 µM (inactive) | GI50 (SW-620): > 100 µM (inactive) | GI50 (U-251): > 100 µM (inactive) | GI50 (UACC-257): > 100 µM (inactive) | GI50 (UACC-62): > 100 µM (inactive) | GI50 (UO-31): > 100 µM (inactive)

Cc1cccc(C)c1NC(=O)C(=O)Cc1nc2ccccc2s1
GI50 (786-0): > 100 µM (inactive) | GI50 (A498): > 100 µM (inactive) | GI50 (A549): > 100 µM (inactive) | GI50 (ACHN): > 100 µM (inactive) | GI50 (CAKI-1): > 100 µM (inactive) | GI50 (CCRF-CEM): > 100 µM (inactive) | GI50 (COLO 205): > 100 µM (inactive) | GI50 (DLD-1): > 100 µM (inactive) | GI50 (DMS-114): > 100 µM (inactive) | GI50 (DMS-273): > 100 µM (inactive) | GI50 (EKVX): > 100 µM (inactive) | GI50 (HCC 2998): > 100 µM (inactive) | GI50 (HCT-116): > 100 µM (inactive) | GI50 (HCT-15): > 100 µM | GI50 (HL-60): > 100 µM (inactive) | GI50 (HOP-62): > 100 µM (inactive) | GI50 (HOP-92): > 100 µM (inactive) | GI50 (HT-29): > 100 µM (inactive) | GI50 (IGROV-1): > 100 µM (inactive) | GI50 (K562): > 100 µM (inactive) | GI50 (KM-20L2): > 100 µM (inactive) | GI50 (KM12): > 100 µM (inactive) | GI50 (LOX IMVI): > 100 µM (inactive) | GI50 (LXFL 529): > 100 µM (inactive) | GI50 (M14): > 100 µM (inactive) | GI50 (M19-MEL): > 100 µM (inactive) | GI50 (Malme-3M): > 100 µM (inactive) | GI50 (NCI-H226): > 100 µM (inactive) | GI50 (NCI-H23): > 100 µM (inactive) | GI50 (NCI-H460): > 100 µM (inactive) | GI50 (NCI-H522): > 100 µM (inactive) | GI50 (OVCAR-3): > 100 µM (inactive) | GI50 (OVCAR-4): > 100 µM (inactive) | GI50 (OVCAR-5): > 100 µM (inactive) | GI50 (OVCAR-8): > 100 µM (inactive) | GI50 (RPMI-8226): > 100 µM (inactive) | GI50 (RXF 393): 50.9 µM (inactive) | GI50 (SF-268): > 100 µM (inactive) | GI50 (SF-295): > 100 µM (inactive) | GI50 (SF-539): > 100 µM (inactive) | GI50 (SK-MEL-28): > 100 µM (inactive) | GI50 (SK-MEL-2): > 100 µM (inactive) | GI50 (SK-MEL-5): > 100 µM (inactive) | GI50 (SK-OV-3): > 100 µM (inactive) | GI50 (SN12C): > 100 µM (inactive) | GI50 (SNB-19): > 100 µM (inactive) | GI50 (SNB-75): 27.5 µM (inactive) | GI50 (SNB-78): > 100 µM (inactive) | GI50 (SW-620): > 100 µM (inactive) | GI50 (TK-10): > 100 µM (inactive) | GI50 (U-251): > 100 µM (inactive) | GI50 (UACC-257): > 100 µM (inactive) | GI50 (UACC-62): > 100 µM (inactive) | GI50 (UO-31): > 100 µM (inactive) | GI50 (XF498): > 100 µM (inactive)
